# Experimental data published in PubChem BioAssay (NCI).
#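 Cultured in 96-well plates, cells were exposed to test compound for 48 hours across five concentrations. GI50: concentration for 50% inhibition of growth. TGI: concentration producing complete growth inhibition.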
# Assays:
# Test in all cases: NCI anticancer screen, dose series, 48 h
# RPMI-8226 leukemia = system: RPMI-8226 leukemia
# UACC-257 melanoma = system: UACC-257 melanoma
# HOP-92 NSCLC = system: HOP-92 NSCLC
# RXF 393 renal = system: RXF 393 renal
# UO-31 renal = system: UO-31 renal
# MALME-3M melanoma = system: MALME-3M melanoma
# A549 NSCLC = system: A549 NSCLC
# OVCAR-8 ovarian = system: OVCAR-8 ovarian
# SN12C renal = system: SN12C renal
# MDA-MB-435 = system: MDA-MB-435
Molecule,TGI (RPMI-8226 leukemia),TGI (UACC-257 melanoma),TGI (HOP-92 NSCLC),TGI (RXF 393 renal),TGI (UO-31 renal),TGI (MALME-3M melanoma),TGI (A549 NSCLC),TGI (OVCAR-8 ovarian),TGI (SN12C renal),GI50 (RPMI-8226 leukemia),GI50 (UACC-257 melanoma),GI50 (HOP-92 NSCLC),GI50 (RXF 393 renal),GI50 (UO-31 renal),GI50 (MDA-MB-435),TGI (MDA-MB-435),GI50 (A549 NSCLC),GI50 (OVCAR-8 ovarian),GI50 (SN12C renal),GI50 (MALME-3M melanoma)
O=c1[nH]cc(C(F)(C(F)(F)F)C(F)(F)F)c(=O)[nH]1,> 100 µM,> 100 µM,> 100 µM,> 100 µM,> 100 µM,> 100 µM,> 100 µM,> 100 µM,> 100 µM,–,–,–,–,–,–,–,–,–,–,–
Cc1cc2nc(-c3c(F)cccc3Cl)n(Cc3c(F)cccc3Cl)c2cc1C,> 100 µM,38.3 µM,33.5 µM,28.4 µM,54.5 µM,–,33.1 µM,46.6 µM,24.2 µM,16.3 µM,16.4 µM,14 µM,11.8 µM,13.2 µM,7.33 µM,22.7 µM,11.7 µM,18.9 µM,11.7 µM,–
COc1cc(Cn2c(-c3ccccc3)cc3c2-c2oncc2CC3)cc(OC)c1,–,> 100 µM,> 100 µM,> 100 µM,> 100 µM,–,> 100 µM,> 100 µM,> 100 µM,0.459 µM,–,4.11 µM,0.296 µM,0.665 µM,0.0815 µM,0.34 µM,0.404 µM,0.592 µM,0.738 µM,–
CC(C)[Si](OCC1CC(C#N)OC(C)(C)O1)(C(C)C)C(C)C (stereo not given),33.8 µM,42.7 µM,57.2 µM,31.9 µM,40.9 µM,57.6 µM,> 100 µM,48 µM,> 100 µM,–,–,–,–,–,–,–,–,–,–,–
CN=C(N)N/N=C(\C)c1ccc2c(c1)Cc1ccccc1-2,4.16 µM,3.74 µM,5.67 µM,66.5 µM,2.89 µM,3.02 µM,–,–,5.38 µM,1.72 µM,1.96 µM,1.63 µM,4.06 µM,1.43 µM,1.64 µM,3.15 µM,–,–,1.92 µM,1.51 µM
NS(=O)(=O)c1ccc(NC(=O)c2cccc(NC3=C(Cl)C(=O)N(Cc4ccccc4)C3=O)c2)cc1,14.7 µM,29.4 µM,31.1 µM,33.9 µM,6.4 µM,–,52.3 µM,41.8 µM,25.9 µM,3.51 µM,14.7 µM,8.09 µM,10.6 µM,2.27 µM,8.63 µM,24.1 µM,21.2 µM,12.3 µM,11.6 µM,–
COc1ccc2c(c1)/C(=N/OC(C)=O)c1c-2cnc2ccccc12,81.5 µM,> 100 µM,37.2 µM,68.5 µM,46.6 µM,39.1 µM,73.8 µM,> 100 µM,36.3 µM,22.3 µM,61.1 µM,18.3 µM,26.4 µM,22.2 µM,–,–,27.4 µM,38.4 µM,18.9 µM,16.2 µM
CSCCCNC(=O)[C@H](CSC)NC(=O)c1csc(CCNC(=O)[C@@H](NSc2ccccc2[N+](=O)[O-])C(C)O)n1 (stereo not given in full),–,> 100 µM,> 100 µM,> 100 µM,> 100 µM,> 100 µM,> 100 µM,> 100 µM,> 100 µM,–,–,–,–,–,–,> 100 µM,–,–,–,–
CC1=C(N2CC2)C(=O)c2ccccc2C1=O,–,1.94 µM,–,2.64 µM,10.6 µM,2.65 µM,2.17 µM,2.82 µM,2.09 µM,–,–,–,–,–,–,2.84 µM,–,–,–,–
H-QIYKKYRTWYRKAWKVLGKV-NH2,77.7 µM,51.6 µM,4.81 µM,27.4 µM,39.5 µM,–,47.7 µM,> 100 µM,15 µM,6.85 µM,13.8 µM,1.95 µM,4.55 µM,19.2 µM,5.75 µM,36.9 µM,12.7 µM,3.8 µM,3.56 µM,–
NNC(=O)C(O)C(O)C(=O)NN (stereo not given),> 100 µM,> 100 µM,–,> 100 µM,> 100 µM,> 100 µM,> 100 µM,> 100 µM,> 100 µM,–,–,–,–,–,–,> 100 µM,–,–,–,–
COc1ccc2c([nH]c3c(O)c(-c4c(C)cc5c([nH]c6c(CC=C(C)C)c(OC)ccc65)c4O)c(C)cc32)c1CC=C(C)C,> 100 µM,> 100 µM,> 100 µM,> 100 µM,> 100 µM,> 100 µM,> 100 µM,> 100 µM,> 100 µM,–,–,–,–,–,–,–,–,–,–,–
C/C(=N\NS(=O)(=O)c1ccc([N+](=O)[O-])cc1)c1ccc[n+]([O-])n1,7.17 µM,14.6 µM,8.3 µM,2.67 µM,6.74 µM,9.45 µM,> 100 µM,6.61 µM,12 µM,–,–,–,–,–,–,–,–,–,–,–
C#CCOCn1cnc2ncnc(N)c21,> 100 µM,> 100 µM,> 100 µM,> 100 µM,> 100 µM,> 100 µM,> 100 µM,> 100 µM,> 100 µM,–,–,–,–,–,–,–,–,–,–,–
O=C1C=Cc2ncccc2C1=O,62.4 µM,35.1 µM,42.5 µM,35.9 µM,> 57.7 µM,> 57.2 µM,> 67.6 µM,30.2 µM,48.9 µM,–,–,–,–,–,–,–,–,–,–,–
Nc1ccn(C2OC(C(OC3OC(CO)C(O)C(N)C3O)C(O)C(O)C(O)C(O)CO)C(N)C(O)C2O)c(=O)n1 (stereo not given),> 100 µM,> 100 µM,24.6 µM,–,> 100 µM,–,> 100 µM,> 100 µM,> 100 µM,–,–,–,–,–,–,> 100 µM,–,–,–,–
Cc1ccc(/C=N/NS(=O)(=O)c2ccccc2)c(C)c1,> 100 µM,> 100 µM,> 100 µM,> 100 µM,> 100 µM,> 100 µM,> 100 µM,> 100 µM,> 100 µM,–,–,–,–,–,–,–,–,–,–,–
CNC(c1ccncc1)C(NC)c1ccncc1 (stereo not given),> 100 µM,> 100 µM,–,> 100 µM,> 100 µM,> 100 µM,> 100 µM,> 100 µM,> 100 µM,–,–,–,–,–,–,> 100 µM,–,–,–,–
